Assay results: patent publication US20230365546A1, “5-SUBSTITUTED INDOLE 3-AMIDE DERIVATIVES, PREPARATION METHOD AND USE THEREOF” (ORIGIANT PHARMACEUTICAL CO., LTD, priority 2020, published 2023)

How the values were obtained:
Experiment in all cases: Kinase Profiler 10 μM panel
[1] = target: PI3 Kinase (p110a/p85a)(m) (Mus musculus (Mouse), UniProt P42337)
Description: (§1) In vitro kinase assays were conducted using Kinase Profiler services provided by Eurofins. The experimental method was as follows: the small molecule compound to be tested (0.001-10 μM), the protein kinase to be tested were incubated with a buffer containing substrate, 10 mM magnesium acetate, and [γ-^33P-ATP], the reaction was started by adding Mg\TPmix, after incubation for a period of time at room temperature, a 3% phosphate solution was added to the buffer to stop the reaction. Subsequently, 10 μL of the reaction mixture was quantitatively pipetted onto P30 filter paper, which was washed three times with 75 mM phosphate solution and then once with methanol. The P30 filter paper was air-dried and scintillation fluid was added for scintillation counting.

MEK1(h) = MEK1(h) (Homo sapiens (Human), UniProt Q02750)
Description: as §1

NEK7(h) = NEK7(h) (Homo sapiens (Human), UniProt Q8TDX7)
Description: as §1

Met(h) = Met(h) (Homo sapiens (Human), UniProt P08581)
Description: as §1

LOK(h) = LOK(h) (Homo sapiens (Human), UniProt O94804)
Description: as §1

Aurora-B(h) = Aurora-B(h) (Homo sapiens (Human), UniProt Q96GD4)
Description: as §1

[2] = target: PI3 Kinase (p110d/p85a)(m) (Mus musculus (Mouse), UniProt O35904)
Description: as §1

NDR2(h) = NDR2(h) (Homo sapiens (Human), UniProt Q9Y2H1)
Description: as §1

HPK1(h) = HPK1(h) (Homo sapiens (Human), UniProt Q92918)
Description: as §1

MEKK2(h) = MEKK2(h) (Homo sapiens (Human), UniProt Q9Y2U5)
Description: as §1

ULK1(h) = ULK1(h) (Homo sapiens (Human), UniProt O75385)
Description: as §1

Abl (Q252H)(h) = Abl (Q252H)(h) (Homo sapiens (Human), UniProt P00519, Q252H)
Description: as §1

DCAMKL3(h) = DCAMKL3(h) (Homo sapiens (Human), UniProt Q9C098)
PKBβ(h) = PKBβ(h) (Homo sapiens (Human), UniProt P31751)
Description: as §1

TYK2(h) = TYK2(h) (Homo sapiens (Human), UniProt P29597)
Description: as §1

Abl(m) = Abl(m) (Mus musculus (Mouse), UniProt P00520)
Description: as §1

MSK1(h) = MSK1(h) (Homo sapiens (Human), UniProt O75582)
Description: as §1

PAR-1Bα(h) = PAR-1Bα(h) (Homo sapiens (Human), UniProt Q7KZI7)
Description: as §1

mTOR(h) = mTOR(h) (Homo sapiens (Human), UniProt P42345)
Description: as §1

TAO2(h) = TAO2(h) (Homo sapiens (Human), UniProt Q9UL54)
Description: as §1

JAK1(h) = JAK1(h) (Homo sapiens (Human), UniProt P23458)
Description: as §1

CLK4(h) = CLK4(h) (Homo sapiens (Human), UniProt Q9HAZ1)
Description: as §1

ULK3(h) = ULK3(h) (Homo sapiens (Human), UniProt Q6PHR2)
Description: as §1

MRCKα(h) = MRCKα(h) (Homo sapiens (Human), UniProt Q5VT25)
Description: as §1

Blk(m) = Blk(m) (Mus musculus (Mouse), UniProt P16277)
Description: as §1

[3] = target: PI3 Kinase (p110a(E545K)/p85a)(h) (Homo sapiens (Human), UniProt P42336, E545K)
Description: as §1

TGFBR1(h) = TGFBR1(h) (Homo sapiens (Human), UniProt P36897)
Description: as §1

PIP5K1a(h) = PIP5K1a(h) (Homo sapiens (Human), UniProt Q99755)
Description: as §1

DRAK2(h) = DRAK2(h) (Homo sapiens (Human), UniProt O94768)
Description: as §1

EphB2(h) = EphB2(h) (Homo sapiens (Human), UniProt P29323)
Description: as §1

TGFBR2(h) = TGFBR2(h) (Homo sapiens (Human), UniProt P37173)
Description: as §1

PKCα(h) = PKCα(h) (Homo sapiens (Human), UniProt P17252)
Description: as §1

PIP5K1g(h) = PIP5K1g(h) (Homo sapiens (Human), UniProt O60331)
PIP5K1g(h), sequence (O60331 whole entry): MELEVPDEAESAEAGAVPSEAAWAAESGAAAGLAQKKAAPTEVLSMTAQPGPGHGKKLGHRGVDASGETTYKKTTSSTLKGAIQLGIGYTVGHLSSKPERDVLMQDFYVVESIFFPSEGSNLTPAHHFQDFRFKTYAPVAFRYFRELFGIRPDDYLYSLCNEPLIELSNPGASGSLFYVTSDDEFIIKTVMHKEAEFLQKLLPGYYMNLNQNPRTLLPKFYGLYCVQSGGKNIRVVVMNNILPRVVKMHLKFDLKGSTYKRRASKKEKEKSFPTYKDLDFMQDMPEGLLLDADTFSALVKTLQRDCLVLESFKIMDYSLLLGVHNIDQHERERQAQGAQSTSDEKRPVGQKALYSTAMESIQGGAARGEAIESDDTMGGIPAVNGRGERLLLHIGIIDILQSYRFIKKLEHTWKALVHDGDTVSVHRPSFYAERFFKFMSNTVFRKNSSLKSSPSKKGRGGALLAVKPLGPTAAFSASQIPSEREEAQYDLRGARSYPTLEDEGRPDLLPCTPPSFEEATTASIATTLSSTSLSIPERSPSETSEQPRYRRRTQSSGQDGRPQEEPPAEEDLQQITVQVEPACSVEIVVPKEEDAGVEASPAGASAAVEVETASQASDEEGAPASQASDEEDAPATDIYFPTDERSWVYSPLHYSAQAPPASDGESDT
Description: as §1

ULK3(h), sequence (Q6PHR2 whole entry): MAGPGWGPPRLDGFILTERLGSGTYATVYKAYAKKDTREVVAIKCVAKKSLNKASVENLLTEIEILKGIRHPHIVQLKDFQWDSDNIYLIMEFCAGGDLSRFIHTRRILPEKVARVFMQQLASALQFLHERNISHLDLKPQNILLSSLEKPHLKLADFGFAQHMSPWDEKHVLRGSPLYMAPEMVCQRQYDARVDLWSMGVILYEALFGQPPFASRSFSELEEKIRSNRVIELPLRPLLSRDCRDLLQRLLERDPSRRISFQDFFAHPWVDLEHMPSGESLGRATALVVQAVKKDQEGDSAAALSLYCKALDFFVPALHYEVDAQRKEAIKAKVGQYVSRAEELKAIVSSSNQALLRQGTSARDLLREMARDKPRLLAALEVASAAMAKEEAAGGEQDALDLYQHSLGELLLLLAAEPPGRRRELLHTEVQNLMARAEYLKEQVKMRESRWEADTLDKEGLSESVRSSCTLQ
TYK2(h), sequence (P29597 whole entry): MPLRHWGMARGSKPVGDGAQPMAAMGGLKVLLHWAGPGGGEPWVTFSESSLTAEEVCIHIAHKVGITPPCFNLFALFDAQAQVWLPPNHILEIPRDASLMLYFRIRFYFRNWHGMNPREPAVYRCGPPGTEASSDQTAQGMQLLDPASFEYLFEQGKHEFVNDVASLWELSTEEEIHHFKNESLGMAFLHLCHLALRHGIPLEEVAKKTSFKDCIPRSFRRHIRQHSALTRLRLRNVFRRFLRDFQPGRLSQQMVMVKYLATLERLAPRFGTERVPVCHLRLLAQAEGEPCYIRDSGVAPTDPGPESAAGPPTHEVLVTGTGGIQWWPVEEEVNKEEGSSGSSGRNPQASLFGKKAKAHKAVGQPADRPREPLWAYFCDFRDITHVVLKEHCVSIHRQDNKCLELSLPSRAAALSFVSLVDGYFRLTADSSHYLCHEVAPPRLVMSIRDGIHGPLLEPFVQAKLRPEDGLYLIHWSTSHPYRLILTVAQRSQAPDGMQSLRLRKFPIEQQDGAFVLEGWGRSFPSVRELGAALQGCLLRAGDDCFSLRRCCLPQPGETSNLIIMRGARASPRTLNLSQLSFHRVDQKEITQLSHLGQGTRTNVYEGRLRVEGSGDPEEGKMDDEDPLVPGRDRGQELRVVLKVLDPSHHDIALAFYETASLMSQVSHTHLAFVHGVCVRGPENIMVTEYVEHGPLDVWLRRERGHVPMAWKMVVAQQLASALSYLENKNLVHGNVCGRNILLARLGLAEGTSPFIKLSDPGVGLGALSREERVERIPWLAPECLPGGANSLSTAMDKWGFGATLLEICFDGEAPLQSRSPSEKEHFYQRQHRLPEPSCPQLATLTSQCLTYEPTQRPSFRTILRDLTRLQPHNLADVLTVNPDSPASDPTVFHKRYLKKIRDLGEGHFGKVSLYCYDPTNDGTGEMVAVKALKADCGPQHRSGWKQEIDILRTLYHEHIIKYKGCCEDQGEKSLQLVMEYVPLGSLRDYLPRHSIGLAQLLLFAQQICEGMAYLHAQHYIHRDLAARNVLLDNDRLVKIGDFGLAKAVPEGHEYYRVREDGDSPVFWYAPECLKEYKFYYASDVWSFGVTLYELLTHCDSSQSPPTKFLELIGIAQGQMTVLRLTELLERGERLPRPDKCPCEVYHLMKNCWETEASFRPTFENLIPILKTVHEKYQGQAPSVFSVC
PI3 Kinase (p110d/p85a)(m), sequence (O35904 whole entry): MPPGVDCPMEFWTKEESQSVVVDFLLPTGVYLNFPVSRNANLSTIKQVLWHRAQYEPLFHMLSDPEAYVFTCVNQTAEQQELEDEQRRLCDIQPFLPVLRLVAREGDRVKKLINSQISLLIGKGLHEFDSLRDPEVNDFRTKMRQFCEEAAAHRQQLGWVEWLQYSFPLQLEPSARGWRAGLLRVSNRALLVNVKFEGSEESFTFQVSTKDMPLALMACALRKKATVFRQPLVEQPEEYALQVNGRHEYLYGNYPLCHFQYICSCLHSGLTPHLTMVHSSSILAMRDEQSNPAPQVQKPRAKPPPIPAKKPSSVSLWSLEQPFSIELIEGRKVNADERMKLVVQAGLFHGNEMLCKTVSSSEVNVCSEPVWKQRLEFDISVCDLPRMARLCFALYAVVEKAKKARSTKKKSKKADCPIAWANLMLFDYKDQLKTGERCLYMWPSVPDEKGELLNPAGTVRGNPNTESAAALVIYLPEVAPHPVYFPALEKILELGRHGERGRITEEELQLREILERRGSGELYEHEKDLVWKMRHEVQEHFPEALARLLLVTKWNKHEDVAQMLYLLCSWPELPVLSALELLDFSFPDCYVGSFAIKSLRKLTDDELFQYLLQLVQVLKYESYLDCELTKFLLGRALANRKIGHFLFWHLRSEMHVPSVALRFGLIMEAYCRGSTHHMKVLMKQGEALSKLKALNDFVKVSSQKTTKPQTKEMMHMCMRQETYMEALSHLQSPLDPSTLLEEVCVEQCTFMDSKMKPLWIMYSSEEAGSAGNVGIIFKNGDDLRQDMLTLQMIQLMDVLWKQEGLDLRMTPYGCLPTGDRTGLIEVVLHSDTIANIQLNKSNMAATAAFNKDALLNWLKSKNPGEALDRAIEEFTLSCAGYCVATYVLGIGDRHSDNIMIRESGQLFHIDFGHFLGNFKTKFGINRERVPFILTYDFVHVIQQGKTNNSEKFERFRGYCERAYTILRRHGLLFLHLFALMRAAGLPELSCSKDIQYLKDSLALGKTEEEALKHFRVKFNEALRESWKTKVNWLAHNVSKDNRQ
PI3 Kinase (p110d/p85a)(m), sequence (P26450 whole entry partner): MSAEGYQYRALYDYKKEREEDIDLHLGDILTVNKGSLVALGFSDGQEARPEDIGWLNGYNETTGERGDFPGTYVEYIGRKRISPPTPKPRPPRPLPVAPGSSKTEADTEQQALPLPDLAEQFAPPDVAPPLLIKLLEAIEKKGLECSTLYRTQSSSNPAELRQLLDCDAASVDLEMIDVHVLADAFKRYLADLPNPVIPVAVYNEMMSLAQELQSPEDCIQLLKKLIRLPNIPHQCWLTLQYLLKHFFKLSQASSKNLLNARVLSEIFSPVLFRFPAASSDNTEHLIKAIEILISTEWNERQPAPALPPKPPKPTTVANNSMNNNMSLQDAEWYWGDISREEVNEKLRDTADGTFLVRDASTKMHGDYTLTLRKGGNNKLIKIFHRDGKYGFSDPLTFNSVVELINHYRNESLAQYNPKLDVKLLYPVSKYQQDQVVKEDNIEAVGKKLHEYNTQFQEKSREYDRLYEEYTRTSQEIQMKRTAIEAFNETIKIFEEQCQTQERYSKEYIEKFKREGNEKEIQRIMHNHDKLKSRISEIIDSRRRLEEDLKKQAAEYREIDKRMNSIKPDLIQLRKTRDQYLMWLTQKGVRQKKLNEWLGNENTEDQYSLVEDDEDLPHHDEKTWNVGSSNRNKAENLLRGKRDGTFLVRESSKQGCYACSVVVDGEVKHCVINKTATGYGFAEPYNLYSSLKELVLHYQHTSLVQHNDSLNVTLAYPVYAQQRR
DRAK2(h), sequence (O94768 whole entry): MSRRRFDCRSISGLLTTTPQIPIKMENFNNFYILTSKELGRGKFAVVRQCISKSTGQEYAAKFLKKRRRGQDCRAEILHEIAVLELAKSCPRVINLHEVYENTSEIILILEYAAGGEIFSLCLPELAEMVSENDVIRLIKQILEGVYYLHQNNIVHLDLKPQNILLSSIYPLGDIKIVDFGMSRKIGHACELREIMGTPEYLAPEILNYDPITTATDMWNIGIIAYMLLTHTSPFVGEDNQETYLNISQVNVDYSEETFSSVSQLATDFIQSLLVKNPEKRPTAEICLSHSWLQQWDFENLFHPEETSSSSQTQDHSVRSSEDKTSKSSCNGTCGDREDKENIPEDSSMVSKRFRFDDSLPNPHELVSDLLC
PIP5K1a(h), sequence (Q99755 whole entry): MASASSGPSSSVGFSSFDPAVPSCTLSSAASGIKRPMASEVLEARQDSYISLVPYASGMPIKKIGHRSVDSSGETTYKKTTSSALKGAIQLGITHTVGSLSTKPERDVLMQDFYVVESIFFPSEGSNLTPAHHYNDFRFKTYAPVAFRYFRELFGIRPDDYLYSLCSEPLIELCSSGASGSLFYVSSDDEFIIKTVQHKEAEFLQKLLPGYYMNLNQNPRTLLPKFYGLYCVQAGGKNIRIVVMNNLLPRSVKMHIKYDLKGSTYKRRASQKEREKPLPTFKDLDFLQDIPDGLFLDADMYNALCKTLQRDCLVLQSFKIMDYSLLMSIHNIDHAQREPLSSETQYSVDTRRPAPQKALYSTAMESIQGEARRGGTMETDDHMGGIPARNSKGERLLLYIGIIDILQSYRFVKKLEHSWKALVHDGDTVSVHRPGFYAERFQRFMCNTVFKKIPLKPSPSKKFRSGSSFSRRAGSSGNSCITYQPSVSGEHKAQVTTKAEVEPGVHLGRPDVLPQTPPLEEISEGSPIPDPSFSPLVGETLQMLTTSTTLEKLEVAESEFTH

`C[C@H](NC(=O)c1c[nH]c2ccc(-c3ccc4nc(NC(=O)C5CC5)sc4c3)cc12)c1cccc(F)c1` [Compound 34, (S)-5-(2-(cyclopropanecarboxamido)benzo[d]thiazol-6-yl)-N-(1-(3-fluorophenyl)ethyl)-1H-indole-3-carboxamide] showed an Inhibition ratio [1] of 43%, an Inhibition ratio (MEK1(h)) of 12% and an Inhibition ratio (NEK7(h)) of 4%. The Inhibition ratio (Met(h)) was 95%, the Inhibition ratio (LOK(h)) was 85% and the Inhibition ratio (Aurora-B(h)) was 21%. It also gave an Inhibition ratio [2] of 31%, an Inhibition ratio (NDR2(h)) of 23% and an Inhibition ratio (HPK1(h)) of 75%. The Inhibition ratio (MEKK2(h)) was 3%, the Inhibition ratio (ULK1(h)) was 11% and the Inhibition ratio (Abl (Q252H)(h)) was 97%. It also gave an Inhibition ratio (DCAMKL3(h)) of 8%, an Inhibition ratio (PKBβ(h)) of 12% and an Inhibition ratio (TYK2(h)) of 12%. It also gave an Inhibition ratio (Abl(m)) of 99%, an Inhibition ratio (MSK1(h)) of 53% and an Inhibition ratio (PAR-1Bα(h)) of 2%. For the same compound, the Inhibition ratio (mTOR(h)) was −7%, the Inhibition ratio (TAO2(h)) was 58% and the Inhibition ratio (JAK1(h)) was 26%. It also gave an Inhibition ratio (CLK4(h)) of 79%, an Inhibition ratio (ULK3(h)) of 30% and an Inhibition ratio (MRCKα(h)) of 12%. The Inhibition ratio (Blk(m)) was 65%, the Inhibition ratio [3] was 32% and the Inhibition ratio (TGFBR1(h)) was 7%. It also gave an Inhibition ratio (PIP5K1a(h)) of 21%, an Inhibition ratio (DRAK2(h)) of 18% and an Inhibition ratio (EphB2(h)) of 42%. For the same compound, the Inhibition ratio (TGFBR2(h)) was 25%, the Inhibition ratio (PKCα(h)) was 6% and the Inhibition ratio (PIP5K1g(h)) was 18%.

In the case of `C[C@H](NC(=O)c1cn(C)c2ccc(-c3ccn4nc(NC(=O)C5CC5)nc4c3)cc12)c1cccc(F)c1` [Compound 94, (S)-5-(2-(cyclopropanecarboxamido)-[1,2,4]triazolo[1,5-a]pyridin-7-yl)-N-(1-(3-fluorophenyl)ethyl)-1-methyl-1H-indole-3-carboxamide], the Inhibition ratio/% [1] is reported as −16%, the Inhibition ratio/% (MEK1(h)) is reported as 43% and the Inhibition ratio/% (NEK7(h)) is reported as 43%. For the same compound, the Inhibition ratio/% (Met(h)) was −29%, the Inhibition ratio/% (LOK(h)) was 25% and the Inhibition ratio/% (Aurora-B(h)) was 25%. The Inhibition ratio/% [2] was 44%, the Inhibition ratio/% (NDR2(h)) was 46% and the Inhibition ratio/% (HPK1(h)) was −3%. For the same compound, the Inhibition ratio/% (MEKK2(h)) was −10%, the Inhibition ratio/% (ULK1(h)) was 45% and the Inhibition ratio/% (Abl (Q252H)(h)) was 29%. For the same compound, the Inhibition ratio/% (DCAMKL3(h)) was 33%, the Inhibition ratio/% (PKBβ(h)) was −8% and the Inhibition ratio/% (TYK2(h)) was 50%. It also gave an Inhibition ratio/% (Abl(m)) of 61%, an Inhibition ratio/% (MSK1(h)) of −20% and an Inhibition ratio/% (PAR-1Bα(h)) of 33%. The Inhibition ratio/% (mTOR(h)) was −11%, the Inhibition ratio/% (TAO2(h)) was −14% and the Inhibition ratio/% (JAK1(h)) was 52%. The Inhibition ratio/% (CLK4(h)) was 79%, the Inhibition ratio/% (ULK3(h)) was 3% and the Inhibition ratio/% (MRCKα(h)) was −19%. For the same compound, the Inhibition ratio/% (Blk(m)) was 77%, the Inhibition ratio/% [3] was 33% and the Inhibition ratio/% (TGFBR1(h)) was −3%. The Inhibition ratio/% (PIP5K1a(h)) was 16%, the Inhibition ratio/% (DRAK2(h)) was 37% and the Inhibition ratio/% (EphB2(h)) was 48%. It also gave an Inhibition ratio/% (TGFBR2(h)) of −6%, an Inhibition ratio/% (PKCα(h)) of 16% and an Inhibition ratio/% (PIP5K1g(h)) of −16%.
